Reference: article PMC4467461, “Small-molecule activation of SERCA2a SUMOylation for the treatment of heart failure” (Nature Communications, 2015)

Test system: TAC mice
Assay: Dobutamine contractile response in TAC and sham mice
Type: in vivo
Conditions: TAC versus sham mice, 3, 6, 10 ng/BW g
Experimental: TAC mice and sham control. n = 5 (TAC) and n = 3 (sham operated). LVIDd, LV internal diameter during diastole; LVIDs, LV internal diameter during systole; FS, fractional shortening; EF, ejection fraction. (e) SERCA2a protein levels were detected by Western blot analysis. 15 µg of tissue extracts was separated on 7.5% SDS-PAGE gels, transferred to nitrocellulose membrane and blotted with anti-SERCA2a antibody. Band intensity was quantified by Image J software. The amount of GAPDH was used as a normalization control. (f) Dobutamine was infused to test contractile response to β-agonist stimulation in TAC and sham operated animals.
LV pressure rise rate (+dP/dt max) was measured in response to different dose of dobutamine stimulation. Dose-dependent dobutamine response was blunted in TAC animals. n = 3 mice per each dose. Data are represented as mean ± SEM. * p < 0.05 versus baseline (Student’s t-test).

With `CC(CCc1ccc(O)cc1)NCCc1ccc(O)c(O)c1` (centres unmarked) [dobutamine] as the molecule, how does the “contractile / chronotropic response (+dP/dt max) to dobutamine” value read?
Its value is “significantly abrogated”.

And the “contractile / chronotropic response (+dP/dt max) to dobutamine” value (listed as Dobutamine)?
The value was “blunted”.
